Structures are written as SMILES.

One experiment concerns HCT-116. The experiment in a line: Anticancer activity against human HCT-116 cells assessed as reduction in cell viability incubated for 48 hrs by MTT assay. Type of experiment: functional, cell-based. As to conditions: HCT-116, 48 h.
`Nc1ccc(-c2nc3ncccc3[nH]2)cc1`: the IC50 amounted to 3.06 µM.

As to `Nc1ccc(/N=N/c2ccc(-c3nc4ncccc4[nH]3)cc2)cc1`, the 50% inhibitory concentration (IC50) came out at 1.83 µM.

Regarding `CC(=O)C(=NNc1ccc(-c2nc3ncccc3[nH]2)cc1)C(C)=O`, the IC50 is 1.69 µM.

For the next experiment, the target named is T1, Cyclin-dependent kinase 2 (Homo sapiens, UniProt P24941). The experiment in a line: Inhibition of human CDK2 using TMB as substrate preincubated for 210 mins followed by substrate addition and measured after 15 to 25 mins by spectrophotometric analysis.
Settings: not given
For `Cc1ccc(S(=O)(=O)Nc2ccc(-c3ccnc(Nc4ccc(S(=O)(=O)Nc5nccc(C)n5)cc4)c3C#N)cc2)cc1`, the IC50 turned out to be 1.79 µM.

The compound `COc1ccccc1/C=C/C(=C(C#N)C#N)c1ccc(NS(=O)(=O)c2ccc(C)cc2)cc1` registered an IC50 of 2.92 µM.

The next experiment relates to Panel NCI-60 (60 carcinoma cell lines). The experiment in a line: Antiproliferative activity against human Panel NCI-60 (60 carcinoma cell lines) cells assessed as inhibition of cell growth at 0.00001 M incubated for 48 hrs by sulforhodamine B assay. On the set-up: scale not given: the % may be the effect or the level left. It is filed as functional. The following applies: dose 10 µM.
Consider `COc1ccc(-n2c(-c3ccccc3)c(-c3ccccc3)c3c(SCC(=O)N/N=C\c4ccc(N(C)C)cc4)ncnc32)cc1`, for which the Activity was less than 50%.

Take `COc1ccc(-n2c(-c3ccccc3)c(-c3ccccc3)c3c(SCC(=O)N/N=C\c4ccccc4[N+](=O)[O-])ncnc32)cc1`: the Activity was less than 50%.

On to `CCOC(=O)CSc1ncnc2c1c(-c1ccccc1)c(-c1ccccc1)n2-c1ccc(C)cc1`, for which the Activity is listed as less than 50%.

As for `Cc1ccc(-n2cc(-c3ccccc3)c3c(SCC(=O)N/N=C\c4ccc(N(C)C)cc4)ncnc32)cc1`, the Activity is on record as less than 50%.

For the compound `Cc1ccc(-n2cc(-c3ccccc3)c3c(SCC(=O)N/N=C\c4ccccc4[N+](=O)[O-])ncnc32)cc1`, the Activity is recorded as less than 50%.

In a further experiment the target is Histone deacetylase. Kind of experiment: Inhibition of HDAC (unknown origin). It is filed as protein assay, Homo sapiens.
Settings: not given
Compound `O=C(CCCn1cc(CNC2CCCCC2)c(-c2ccccc2)n1)NO` yielded an IC50 of 2.95 µM.

For `O=C(CCCn1cc(CNC2CC2)c(-c2ccccc2)n1)NO`, the IC50 turned out to be 2.76 µM.

The next experiment deals with MCF7. Kind of experiment: Antiproliferative activity against human MCF7 cells assessed as reduction in cell proliferation incubated for 3 days by calcein AM staining based fluorescent analysis. Type of experiment: functional. The following applies: MCF7, 72 h.
Take `Clc1ccccc1Nc1nc(SCCc2ccccc2)nc2[nH]ncc12`: the IC50 was 19.2 µM.

`O=C(Oc1nc(SCCc2ccccc2)nc2[nH]ncc12)c1cc2ccccc2o1`: the IC50 is 18.9 µM.

In the case of `CCCCCSc1nc(OC(=O)c2cc3ccccc3o2)c2cn[nH]c2n1`, the IC50 was 18.9 µM.

In the case of `O=[N+]([O-])c1cccc(Nc2nc(SCCc3ccccc3)nc3[nH]ncc23)c1`, the IC50 was 19.2 µM.

Take `CCCCCSc1nc(Nc2ccccc2Cl)c2cn[nH]c2n1`: the 50% inhibitory concentration (IC50) is 19.2 µM.

As to `CCCCCSc1nc(OC(=O)c2ccco2)c2cn[nH]c2n1`, the IC50 was 18.9 µM.

Regarding `CCCCCSc1nc(OC(=O)CC(C)(C)C)c2cn[nH]c2n1`, the IC50 was 18.9 µM.

For `CCCCCSc1nc(Nc2ccc(SC)cc2)c2cn[nH]c2n1`, the IC50 is 19.2 µM.

As for `CCCCCSc1nc(OC(=O)c2ccccc2)c2cn[nH]c2n1`, the half-inhibitory concentration (IC50) was 18.9 µM.

The target of a further experiment is CDK2/Cyclin A2 (Homo sapiens) (UniProt P24941+P20248). The experiment in a line: Inhibition of CDK2/Cyclin A2 (unknown origin) at 10 uM by Kinase-Glo Plus luminescence kinase assay. Type of experiment: protein-complex assay.
Settings: not given
With `Cc1cc(C)nc(NS(=O)(=O)c2ccc(N/C=C3\C(=O)NN=C3Nc3ccccc3)cc2)n1`, the inhibition is 40%.

As to `O=C1NN=C(Nc2ccccc2)/C1=C/Nc1ccc(O)cc1`, the inhibition was determined as 60%.

The next experiment concerns MCF7. The experiment in a line: Antiproliferative activity against human MCF7 cells assessed as reduction in cell viability by MTT assay. It is filed as functional, cell-based.
Settings: not given
Regarding `CCOC(=O)C1=C(C)n2nc(Nc3ccccc3)c(C(N)=O)c2NC1c1ccc(F)cc1` (stereo unspecified), the IC50 was 14.1 µM.

For `CCOC(=O)C1=C(C)n2nc(Nc3ccccc3)c(C#N)c2NC1c1ccc(OC)cc1` (stereo unspecified), the IC50 stood at 10.1 µM.

`O=C1NN=C(Nc2ccccc2)/C1=C/Nc1ccc(O)cc1`: the concentration for half-maximal inhibition (IC50) is 23.3 µM.

For the next experiment, the target named is CDK2/Cyclin A2 (Homo sapiens, UniProt P24941). Kind of experiment: Inhibition of CDK2/cyclin A2 (unknown origin) using histone as substrate in presence of ATP by luminescent ADP detection assay. Type of experiment: protein-complex assay.
Settings: not given
For `O=C(c1cnn(-c2cc(NCc3ccccc3)ncn2)c1)N1CCOCC1`, the IC50 is less than 0.02 µM.

A further experiment deals with MCF7. The experiment in a line: Antiproliferative activity against human MCF7 cells assessed as reduction in cell proliferation incubated for 48 hrs by Sulfo-Rhodamine-B stain (SRB) assay. As to conditions: MCF7, 48 h. It is filed as functional, cell-based.
As for `Cc1ccc(S(=O)(=O)Nc2ccc(-c3ccnc(Nc4ccc(S(=O)(=O)Nc5nccc(C)n5)cc4)c3C#N)cc2)cc1`, the IC50 was determined as 18.3 µM.

With `COc1ccccc1/C=C/C(=C(C#N)C#N)c1ccc(NS(=O)(=O)c2ccc(C)cc2)cc1`, the IC50 is 26.3 µM.

A further experiment relates to HepG2. The experiment in a line: Antiproliferative activity against human HepG2 cells assessed as reduction in cell viability by MTT assay. It is filed as functional, cell-based.
Settings: not given
In the case of `CCOC(=O)C1=C(C)n2nc(Nc3ccccc3)c(C(N)=O)c2NC1c1ccc(F)cc1` (stereo unspecified), the IC50 was determined as 24.2 µM.

With `CCOC(=O)C1=C(C)n2nc(Nc3ccccc3)c(C#N)c2NC1c1ccc(OC)cc1` (stereo unspecified), the IC50 was found to be 17.1 µM.

The next experiment deals with K562. Kind of experiment: Antiproliferative activity against human K562 cells assessed as reduction in cell proliferation incubated for 3 days by calcein AM staining based fluorescent analysis. It is filed as functional. As to conditions: K562, 72 h.
As for `Clc1ccccc1Nc1nc(SCCc2ccccc2)nc2[nH]ncc12`, the half-maximal inhibitory concentration (IC50) was 19.9 µM.

For `O=C(Oc1nc(SCCc2ccccc2)nc2[nH]ncc12)c1cc2ccccc2o1`, the IC50 was 19.8 µM.

On to `CCCCCSc1nc(OC(=O)c2cc3ccccc3o2)c2cn[nH]c2n1`, for which the IC50 was 19.8 µM.

As for `O=[N+]([O-])c1cccc(Nc2nc(SCCc3ccccc3)nc3[nH]ncc23)c1`, the IC50 is 19.9 µM.

Consider `CCCCCSc1nc(Nc2ccccc2Cl)c2cn[nH]c2n1`, for which the IC50 is 19.9 µM.

As for `CCCCCSc1nc(OC(=O)c2ccco2)c2cn[nH]c2n1`, the 50% inhibitory concentration (IC50) was 19.8 µM.

Consider `CCCCCSc1nc(OC(=O)CC(C)(C)C)c2cn[nH]c2n1`, for which the IC50 was 19.8 µM.

Turning to `CCCCCSc1nc(Nc2ccc(SC)cc2)c2cn[nH]c2n1`, the IC50 was 19.9 µM.

As to `CCCCCSc1nc(OC(=O)c2ccccc2)c2cn[nH]c2n1`, the IC50 is 19.8 µM.

The next experiment has as its target T1, Cyclin-dependent kinase 2.
Settings: not given
Consider `O=C(CCCn1cc(CNC2CCCCC2)c(-c2ccccc2)n1)NO`, for which the IC50 stood at 4.63 µM.

`O=C(CCCn1cc(CNC2CC2)c(-c2ccccc2)n1)NO` returned a concentration for half-maximal inhibition (IC50) of 3.7 µM.

The next experiment has as its target Cyclin-dependent kinase 2/cyclin E1 (Homo sapiens, UniProt P24941). The experiment in a line: Inhibition of CDK2/cyclin E1 (unknown origin) expressed in Sf9 cells using histone H1 as substrate in presence of ATP by microplate reader analysis.
Settings: not given
Take `Clc1ccccc1Nc1nc(SCCc2ccccc2)nc2[nH]ncc12`: the IC50 is 7.8 µM.

With `CCCCCSc1nc(OC(=O)c2cc3ccccc3o2)c2cn[nH]c2n1`, the IC50 amounted to 8.8 µM.

Consider `O=[N+]([O-])c1cccc(Nc2nc(SCCc3ccccc3)nc3[nH]ncc23)c1`, for which the IC50 is 8.7 µM.

Take `CCCCCSc1nc(Nc2ccccc2Cl)c2cn[nH]c2n1`: the IC50 amounted to 5.1 µM.

With `CCCCCSc1nc(OC(=O)c2ccco2)c2cn[nH]c2n1`, the IC50 is 21.2 µM.

`CCCCCSc1nc(OC(=O)CC(C)(C)C)c2cn[nH]c2n1`: the IC50 was 16.9 µM.

Turning to `CCCCCSc1nc(Nc2ccc(SC)cc2)c2cn[nH]c2n1`, the IC50 worked out at 8.8 µM.

For `CCCCCSc1nc(OC(=O)c2ccccc2)c2cn[nH]c2n1`, the IC50 was 14.8 µM.

In another experiment the test system is B16-F10. Kind of experiment: Antiproliferative activity against mouse B16-F10 cells assessed reduction in cell proliferation. Type of experiment: functional, cell-based.
Settings: not given
For the compound `O=C(CCCn1cc(CNC2CCCCC2)c(-c2ccccc2)n1)NO`, the half-maximal inhibitory concentration (IC50) is 3.9 µM.

Regarding `O=C(CCCn1cc(CNC2CC2)c(-c2ccccc2)n1)NO`, the IC50 came out at 2.53 µM.

The subject of the next experiment is Caco-2. Kind of experiment: Antiproliferative activity against human Caco-2 cells assessed as reduction in cell viability by MTT assay. Type of experiment: functional, cell-based.
Settings: not given
Consider `CCOC(=O)C1=C(C)n2nc(Nc3ccccc3)c(C(N)=O)c2NC1c1ccc(F)cc1` (stereo unspecified), for which the concentration for half-maximal inhibition (IC50) worked out at 29.3 µM.

In the case of `CCOC(=O)C1=C(C)n2nc(Nc3ccccc3)c(C#N)c2NC1c1ccc(OC)cc1` (stereo unspecified), the IC50 was found to be 25.2 µM.

The subject of another experiment is MCF7. Kind of experiment: Antiproliferative activity against human MCF7 cells assessed reduction in cell proliferation. Type of experiment: functional, cell-based.
Settings: not given
`O=C(CCCn1cc(CNC2CCCCC2)c(-c2ccccc2)n1)NO` yielded an IC50 of 1.12 µM.

Regarding `O=C(CCCn1cc(CNC2CC2)c(-c2ccccc2)n1)NO`, the IC50 is 2.96 µM.

The test system of the next experiment is A549. Kind of experiment: Antiproliferative activity against human A549 cells assessed as reduction in cell viability by MTT assay. It is filed as functional, cell-based.
Settings: not given
Consider `CCOC(=O)C1=C(C)n2nc(Nc3ccccc3)c(C(N)=O)c2NC1c1ccc(F)cc1` (stereo unspecified), for which the IC50 was found to be 30 µM.

On to `CCOC(=O)C1=C(C)n2nc(Nc3ccccc3)c(C#N)c2NC1c1ccc(OC)cc1` (stereo unspecified), for which the IC50 was 29.9 µM.

Another experiment relates to MCF7. Kind of experiment: Anticancer activity against human MCF7 cells assessed as reduction in cell viability incubated for 48 hrs by MTT assay. It is filed as functional, cell-based. As to conditions: MCF7, 48 h.
With `Nc1ccc(-c2nc3ncccc3[nH]2)cc1`, the 50% inhibitory concentration (IC50) was 0.71 µM.

For `Nc1ccc(/N=N/c2ccc(-c3nc4ncccc4[nH]3)cc2)cc1`, the IC50 stood at 2.84 µM.

Regarding `CC(=O)C(=NNc1ccc(-c2nc3ncccc3[nH]2)cc1)C(C)=O`, the IC50 was determined as 2.11 µM.
